Where two headings read alike, the source gives them in different places. Each block holds one compound with its values, some of them ahead of it.
Assays:
Assay in all cases: biochemical
[1] = target: ACVR2A (Homo sapiens, UniProt P27037)
[2] = target: ACVR2B (Homo sapiens, UniProt Q13705)
[3] = target: ALK (Homo sapiens, UniProt Q9UM73)
[4] = target: ASK2 (Homo sapiens, UniProt O95382)
[5] = target: BLK (Homo sapiens, UniProt P51451)
[6] = target: BMPR1B (Homo sapiens, UniProt O00238)
[7] = target: BMX (Homo sapiens, UniProt P51813)
[8] = target: BTK (Homo sapiens, UniProt Q06187)
[9] = target: CAMK1D (Homo sapiens, UniProt Q8IU85)
CAMK1D, sequence (Q8IU85 whole entry): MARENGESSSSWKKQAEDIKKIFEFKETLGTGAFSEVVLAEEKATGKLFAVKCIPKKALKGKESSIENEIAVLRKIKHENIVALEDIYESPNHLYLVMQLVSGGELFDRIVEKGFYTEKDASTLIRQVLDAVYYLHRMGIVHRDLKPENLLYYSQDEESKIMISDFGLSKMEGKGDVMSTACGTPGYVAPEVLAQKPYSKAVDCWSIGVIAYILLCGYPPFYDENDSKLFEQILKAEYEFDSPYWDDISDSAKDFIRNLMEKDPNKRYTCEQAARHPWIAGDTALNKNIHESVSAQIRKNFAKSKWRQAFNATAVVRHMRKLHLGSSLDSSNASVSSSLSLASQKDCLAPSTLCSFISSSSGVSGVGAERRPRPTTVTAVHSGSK

[10] = target: CAMK1G (Homo sapiens, UniProt Q96NX5)
[11] = target: CHEK1 (Homo sapiens, UniProt O14757)
[12] = target: CSNK1G1 (Homo sapiens, UniProt Q9HCP0)
[13] = target: CSNK2A2 (Homo sapiens, UniProt P19784)
[14] = target: DAPK1 (Homo sapiens, UniProt P53355)
[15] = target: DAPK2 (Homo sapiens, UniProt Q9UIK4)
[16] = target: DRAK1 (Homo sapiens, UniProt Q9UEE5)
[17] = target: EGFR(L858R) (Homo sapiens, UniProt P00533, L858R)
[18] = target: FGFR2 (Homo sapiens, UniProt P21802)
[19] = target: FGFR3(G697C) (Homo sapiens, UniProt P22607, G697C)
FGFR3(G697C), sequence (P22607 whole entry G697C): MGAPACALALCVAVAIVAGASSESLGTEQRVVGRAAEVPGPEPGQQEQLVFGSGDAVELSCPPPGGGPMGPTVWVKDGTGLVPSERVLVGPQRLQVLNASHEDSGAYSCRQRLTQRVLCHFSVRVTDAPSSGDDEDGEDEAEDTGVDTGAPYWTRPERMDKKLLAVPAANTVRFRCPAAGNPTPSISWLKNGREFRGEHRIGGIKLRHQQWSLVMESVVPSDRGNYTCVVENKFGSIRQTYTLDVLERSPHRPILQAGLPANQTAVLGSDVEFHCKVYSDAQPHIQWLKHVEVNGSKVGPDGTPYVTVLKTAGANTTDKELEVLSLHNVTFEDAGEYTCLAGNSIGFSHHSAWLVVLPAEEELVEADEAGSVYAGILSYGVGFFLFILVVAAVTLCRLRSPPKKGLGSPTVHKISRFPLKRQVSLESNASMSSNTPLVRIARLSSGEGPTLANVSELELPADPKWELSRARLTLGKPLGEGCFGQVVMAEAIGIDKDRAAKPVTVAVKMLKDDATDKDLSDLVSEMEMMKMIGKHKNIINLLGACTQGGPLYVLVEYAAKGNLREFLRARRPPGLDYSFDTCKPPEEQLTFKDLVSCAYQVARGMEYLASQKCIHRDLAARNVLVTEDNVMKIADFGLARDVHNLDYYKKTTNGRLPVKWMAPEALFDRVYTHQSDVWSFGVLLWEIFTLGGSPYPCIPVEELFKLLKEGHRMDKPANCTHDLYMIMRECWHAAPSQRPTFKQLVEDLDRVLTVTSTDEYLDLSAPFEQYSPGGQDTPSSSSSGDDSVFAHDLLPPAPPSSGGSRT

[20] = target: GSK3B (Homo sapiens, UniProt P49841)
[21] = target: ICK (Homo sapiens, UniProt Q9UPZ9)
ICK, sequence (Q9UPZ9 whole entry): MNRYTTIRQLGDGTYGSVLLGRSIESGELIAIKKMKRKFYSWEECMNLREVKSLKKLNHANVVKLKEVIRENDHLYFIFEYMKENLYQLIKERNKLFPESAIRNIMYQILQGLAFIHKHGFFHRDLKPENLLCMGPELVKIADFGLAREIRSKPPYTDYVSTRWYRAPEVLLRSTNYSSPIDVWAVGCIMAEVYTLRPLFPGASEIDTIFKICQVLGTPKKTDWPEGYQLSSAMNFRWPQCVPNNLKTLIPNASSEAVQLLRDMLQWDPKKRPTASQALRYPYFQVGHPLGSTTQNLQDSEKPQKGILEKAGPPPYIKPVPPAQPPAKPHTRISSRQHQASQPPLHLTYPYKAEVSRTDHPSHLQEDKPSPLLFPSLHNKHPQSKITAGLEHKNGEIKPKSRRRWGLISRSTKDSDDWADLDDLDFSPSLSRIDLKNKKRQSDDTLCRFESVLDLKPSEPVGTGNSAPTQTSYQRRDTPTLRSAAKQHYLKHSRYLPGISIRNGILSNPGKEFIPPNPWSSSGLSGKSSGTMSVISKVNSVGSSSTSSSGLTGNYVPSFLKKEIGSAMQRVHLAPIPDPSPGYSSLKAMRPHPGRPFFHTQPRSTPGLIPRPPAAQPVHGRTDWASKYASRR

[22] = target: INSR (Homo sapiens, UniProt P06213)
[23] = target: JNK2 (Homo sapiens, UniProt P45984)
[24] = target: LIMK1 (Homo sapiens, UniProt P53667)
[25] = target: LYN (Homo sapiens, UniProt P07948)
[26] = target: MAP3K15 (Homo sapiens, UniProt Q6ZN16)
[27] = target: MAP3K4 (Homo sapiens, UniProt Q9Y6R4)
MAP3K4, sequence (Q9Y6R4 whole entry): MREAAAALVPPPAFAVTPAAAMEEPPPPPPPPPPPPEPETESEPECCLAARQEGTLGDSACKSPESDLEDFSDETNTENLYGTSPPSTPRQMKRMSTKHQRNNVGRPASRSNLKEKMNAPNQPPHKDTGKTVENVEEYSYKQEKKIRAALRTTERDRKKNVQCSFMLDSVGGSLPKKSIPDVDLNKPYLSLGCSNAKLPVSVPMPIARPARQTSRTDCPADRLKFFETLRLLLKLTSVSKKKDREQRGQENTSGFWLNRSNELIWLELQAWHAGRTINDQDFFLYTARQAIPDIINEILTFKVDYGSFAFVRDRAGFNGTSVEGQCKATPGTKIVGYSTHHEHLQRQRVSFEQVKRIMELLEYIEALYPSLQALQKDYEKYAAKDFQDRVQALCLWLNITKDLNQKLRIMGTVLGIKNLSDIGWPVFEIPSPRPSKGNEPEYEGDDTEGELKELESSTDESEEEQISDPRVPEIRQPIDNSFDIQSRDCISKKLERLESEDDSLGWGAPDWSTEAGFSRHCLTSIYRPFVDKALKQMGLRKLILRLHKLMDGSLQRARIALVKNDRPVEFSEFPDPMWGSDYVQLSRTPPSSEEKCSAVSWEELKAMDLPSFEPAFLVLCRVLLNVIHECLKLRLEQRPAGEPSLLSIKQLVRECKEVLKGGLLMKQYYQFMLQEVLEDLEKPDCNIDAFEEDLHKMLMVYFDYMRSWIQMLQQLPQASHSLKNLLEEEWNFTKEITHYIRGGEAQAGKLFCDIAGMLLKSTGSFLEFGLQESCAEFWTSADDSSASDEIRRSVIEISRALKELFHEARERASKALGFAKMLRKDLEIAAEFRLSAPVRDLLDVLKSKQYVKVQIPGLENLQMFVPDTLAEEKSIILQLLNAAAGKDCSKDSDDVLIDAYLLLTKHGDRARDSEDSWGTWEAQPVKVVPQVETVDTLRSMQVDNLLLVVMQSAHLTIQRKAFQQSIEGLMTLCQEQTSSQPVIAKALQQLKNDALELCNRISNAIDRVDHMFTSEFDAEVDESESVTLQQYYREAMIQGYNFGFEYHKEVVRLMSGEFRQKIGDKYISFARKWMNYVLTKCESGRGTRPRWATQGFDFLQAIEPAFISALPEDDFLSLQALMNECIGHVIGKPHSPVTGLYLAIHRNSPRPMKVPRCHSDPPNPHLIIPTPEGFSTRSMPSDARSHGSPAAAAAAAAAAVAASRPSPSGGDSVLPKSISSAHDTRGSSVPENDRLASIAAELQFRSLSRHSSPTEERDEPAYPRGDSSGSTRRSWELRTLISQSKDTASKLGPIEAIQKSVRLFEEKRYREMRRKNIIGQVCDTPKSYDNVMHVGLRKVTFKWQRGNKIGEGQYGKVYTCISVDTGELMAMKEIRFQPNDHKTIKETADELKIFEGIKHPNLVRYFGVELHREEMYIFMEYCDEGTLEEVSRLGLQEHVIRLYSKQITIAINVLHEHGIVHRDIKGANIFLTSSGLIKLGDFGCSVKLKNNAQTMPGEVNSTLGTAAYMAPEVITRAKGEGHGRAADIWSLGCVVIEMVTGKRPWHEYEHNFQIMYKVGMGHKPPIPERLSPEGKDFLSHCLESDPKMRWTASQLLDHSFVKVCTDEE

[28] = target: MEK6 (Homo sapiens, UniProt P52564)
MEK6, sequence (P52564 whole entry): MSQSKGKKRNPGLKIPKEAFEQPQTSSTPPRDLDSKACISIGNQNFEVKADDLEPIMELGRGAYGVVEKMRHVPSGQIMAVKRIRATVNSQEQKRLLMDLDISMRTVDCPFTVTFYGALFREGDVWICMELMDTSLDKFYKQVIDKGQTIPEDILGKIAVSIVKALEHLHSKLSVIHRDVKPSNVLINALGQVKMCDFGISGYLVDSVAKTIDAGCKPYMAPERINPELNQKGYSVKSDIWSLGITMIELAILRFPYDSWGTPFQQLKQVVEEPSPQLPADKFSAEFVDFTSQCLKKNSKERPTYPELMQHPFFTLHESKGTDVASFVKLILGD

[29] = target: MLK1 (Homo sapiens, UniProt P80192)
MLK1, sequence (P80192 whole entry): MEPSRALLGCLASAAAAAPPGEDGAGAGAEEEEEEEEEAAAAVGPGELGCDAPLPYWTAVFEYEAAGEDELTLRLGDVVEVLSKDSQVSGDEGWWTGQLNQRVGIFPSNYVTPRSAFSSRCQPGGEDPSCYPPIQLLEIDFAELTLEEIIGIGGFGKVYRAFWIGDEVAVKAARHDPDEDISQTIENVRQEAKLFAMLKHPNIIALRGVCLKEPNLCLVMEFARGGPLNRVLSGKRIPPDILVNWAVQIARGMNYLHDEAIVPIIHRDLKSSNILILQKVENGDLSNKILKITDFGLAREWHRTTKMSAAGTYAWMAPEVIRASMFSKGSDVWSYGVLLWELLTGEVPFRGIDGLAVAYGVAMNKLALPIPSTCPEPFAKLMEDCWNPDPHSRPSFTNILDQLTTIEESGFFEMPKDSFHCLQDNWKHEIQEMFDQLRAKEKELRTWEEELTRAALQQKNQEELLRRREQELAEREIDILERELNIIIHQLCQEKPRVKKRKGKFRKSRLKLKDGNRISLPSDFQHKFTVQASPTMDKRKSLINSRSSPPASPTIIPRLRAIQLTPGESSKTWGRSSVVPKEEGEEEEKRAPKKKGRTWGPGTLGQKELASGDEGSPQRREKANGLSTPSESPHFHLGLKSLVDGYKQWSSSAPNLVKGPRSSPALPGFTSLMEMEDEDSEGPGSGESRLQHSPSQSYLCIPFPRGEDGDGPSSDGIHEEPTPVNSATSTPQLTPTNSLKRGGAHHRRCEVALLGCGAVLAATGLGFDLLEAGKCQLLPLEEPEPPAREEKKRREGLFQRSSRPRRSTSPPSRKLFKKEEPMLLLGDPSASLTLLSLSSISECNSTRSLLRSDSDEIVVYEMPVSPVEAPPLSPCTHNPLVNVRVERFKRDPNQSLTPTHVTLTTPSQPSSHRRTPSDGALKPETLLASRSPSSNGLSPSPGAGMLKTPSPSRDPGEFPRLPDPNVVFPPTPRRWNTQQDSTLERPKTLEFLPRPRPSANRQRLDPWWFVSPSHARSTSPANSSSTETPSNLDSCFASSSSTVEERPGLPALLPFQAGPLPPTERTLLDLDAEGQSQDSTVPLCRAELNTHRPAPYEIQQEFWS

[30] = target: MYLK (Homo sapiens, UniProt Q15746)
[31] = read-out: CPT-1-70-1 (1uM) % control
[32] = read-out: HYJ-2-002-1 (1uM) % control

SMILES: CN1CCN(c2ccc(Nc3nc(Oc4ccc(NC(=O)CCl)cc4)c4cc[nH]c4n3)cc2)CC1 [CPT1-70-1]
remaining activity at 1 µM [1, 31]: 100% | remaining activity at 1 µM [2, 31]: 100% | remaining activity at 1 µM [3, 31]: 38% | remaining activity at 1 µM [4, 31]: 100% | remaining activity at 1 µM [5, 31]: 1.6% | remaining activity at 1 µM [6, 31]: 100% | remaining activity at 1 µM [7, 31]: 9.2% | remaining activity at 1 µM [8, 31]: 7% | remaining activity at 1 µM [9, 31]: 56% | remaining activity at 1 µM [10, 31]: 50% | remaining activity at 1 µM [11, 31]: 92% | remaining activity at 1 µM [12, 31]: 18% | remaining activity at 1 µM [13, 31]: 28% | remaining activity at 1 µM [14, 31]: 86% | remaining activity at 1 µM [15, 31]: 88% | remaining activity at 1 µM [16, 31]: 14% | remaining activity at 1 µM [17, 31]: 22% | remaining activity at 1 µM [18, 31]: 22% | remaining activity at 1 µM [19, 31]: 34% | remaining activity at 1 µM [20, 31]: 98% | remaining activity at 1 µM [21, 31]: 100% | remaining activity at 1 µM [22, 31]: 17% | remaining activity at 1 µM [23, 31]: 13% | remaining activity at 1 µM [24, 31]: 90% | remaining activity at 1 µM [25, 31]: 49% | remaining activity at 1 µM [26, 31]: 100% | remaining activity at 1 µM [27, 31]: 66% | remaining activity at 1 µM [28, 31]: 55% | remaining activity at 1 µM [29, 31]: 9% | remaining activity at 1 µM [30, 31]: 100%

remaining activity at 1 µM [1, 32]: 100% | remaining activity at 1 µM [2, 32]: 100% | remaining activity at 1 µM [3, 32]: 75% | remaining activity at 1 µM [4, 32]: 100% | remaining activity at 1 µM [5, 32]: 0.1% | remaining activity at 1 µM [6, 32]: 100% | remaining activity at 1 µM [7, 32]: 8.7% | remaining activity at 1 µM [8, 32]: 8.1% | remaining activity at 1 µM [9, 32]: 94% | remaining activity at 1 µM [10, 32]: 94% | remaining activity at 1 µM [11, 32]: 100% | remaining activity at 1 µM [12, 32]: 93% | remaining activity at 1 µM [13, 32]: 100% | remaining activity at 1 µM [14, 32]: 98% | remaining activity at 1 µM [15, 32]: 92% | remaining activity at 1 µM [16, 32]: 82% | remaining activity at 1 µM [17, 32]: 3.2% | remaining activity at 1 µM [18, 32]: 5.7% | remaining activity at 1 µM [19, 32]: 29% | remaining activity at 1 µM [20, 32]: 88% | remaining activity at 1 µM [21, 32]: 100% | remaining activity at 1 µM [22, 32]: 92% | remaining activity at 1 µM [23, 32]: 1.8% | remaining activity at 1 µM [24, 32]: 26% | remaining activity at 1 µM [25, 32]: 0.15% | remaining activity at 1 µM [26, 32]: 100% | remaining activity at 1 µM [27, 32]: 100% | remaining activity at 1 µM [28, 32]: 91% | remaining activity at 1 µM [29, 32]: 100% | remaining activity at 1 µM [30, 32]: 100%
SMILES: CCN1CCN(Cc2ccc(NC(=O)c3ccc(C)c(CCc4cnc5[nH]ccc5c4OC)c3)cc2C(F)(F)F)CC1 [HYJ-2-002-1]
